# Data as given in PMC8704880, “Secondary Metabolites with Cytotoxic Activities from Streptomyces sp. BM-8 Isolated from the Feces of Equus quagga” (Molecules, 2021).
# Like-named read-outs stand apart in the source and are kept apart here.
# Key:
# [1] = system: HT-29 human colon cancer cell line; experiment: MTT cytotoxicity assay, HT-29; type: cell-based; details: 48 h, read-out: IC50 (Means ± SD) HT-29
# Procedure: (§1) The cytotoxic activity of the compounds on cancer cell lines, including HT-29, MCF-7, A375, K562, andNCM460cell lines, was measured using the MTT assay with a small modification. Briefly, cells were plated in 96-well plates at a density of 1 × 10^4 cells per well and allowed to grow overnight, then the medium was replaced with fresh RPMI1640 medium containing serially diluted compounds, and the cells were further incubated at 37 °C with 5% CO2 for 48 h. In this experiment, 1 and 6 were diluted into six different series concentrations from 10 μg/mL to 0.0097 μg/mL with 4× dilution each, while 2 and 3 were diluted from 500 μg/mL to 2.06 μg/mL, and 4, 5, and 7 from 300 μg/mL to 1.23 μg/mL with 3× dilution each. Paclitaxel, a clinical medication used as a positive control, was diluted from 100 μg/mL to 3.125 μg/mL with […]. HT-29, MCF-7, and A375 were all cultured in serum-free RPMI1640, while the K562 was cultured in DMEM containing FBS throughout this experiment. The culture medium was removed after the incubation, and then 100 μL of the 5 mg/mL MTT solution was added to each well and further incubated at 37 °C for 4 h. Finally, the supernatants were removed, and 150 μL of dimethyl sulfoxide (DMSO) was added to each well. After shaking the plates for 10 min at room temperature, the optical density value was measured spectrophotometrically at 570 nm using the microplate reader. The IC50 value (50% inhibitory concentration) was determined to evaluate the cell viability of these cell lines. In this experiment, Graph Pad Prism 5software (San Diego, CA, USA) was used to calculate the half inhibitory concentration (IC50) values. Each experiment was independently repeated at least three times and represented as the means ± standard deviation (SD).
# [2] = system: MCF-7 human breast cancer cell line; experiment: MTT cytotoxicity assay, MCF-7; type: cell-based; details: MCF7, 48 h, read-out: IC50 (Means ± SD) MCF-7
# Procedure: as §1
# [3] = system: A375 human malignant melanoma cell line; experiment: MTT cytotoxicity assay, A375; type: cell-based; details: A-375, 48 h, read-out: IC50 (Means ± SD) A375
# Procedure: as §1
# [4] = system: K562 human chronic myeloid leukemia cell line; experiment: MTT cytotoxicity assay, K562; type: cell-based; details: 48 h, read-out: IC50 (Means ± SD) K562
# Procedure: as §1
# [5] = system: NCM460 human normal colon epithelial cell line; experiment: MTT cytotoxicity assay, NCM460; type: cell-based; details: 48 h, read-out: IC50 (Means ± SD) NCM460
# Procedure: as §1
# [6] = system: HT-29, MCF-7, A375, K562 and NCM460 cell lines; experiment: MTT cytotoxicity assay, whole panel of cell lines; type: cell-based, human; details: for cytotoxic activity toward the tested cell lines (in words): all tested cell lines; for IC50: Homo sapiens, range over all tested cell lines, read-out: IC50 values ranging over the tested cell lines
# Procedure: as §1
# [7] = medium containing FBS, NA = not active
SMILES,IC50 ([1]; medium without FBS) [µM],IC50 ([2]; medium without FBS) [µM],IC50 ([3]; medium without FBS) [µM],"IC50 [4, 7] [µM]",IC50 ([5]; normal colon epithelial cells) [µM],cytotoxic activity toward the tested cell lines (in words) [6],IC50 [6] [µM],IC50 ([1]; positive control) [µM],IC50 ([2]; positive control) [µM],IC50 ([3]; positive control) [µM],IC50 ([4]; positive control) [µM],IC50 ([5]; positive control) [µM]
CC[C@H](O)CC(=O)CC[C@H](O)C(C)C(=O)O (some centres unmarked) [Compound 1],1.98 ± 1.04,5.44 ± 1.33,45 ± 1.21,1.56 ± 0.21,27.9 ± 4.7,less activity,,,,,,
"C[C@H](C(=O)O)[C@@H]1CC[C@H](C[C@@H](C)O)O1 [Compound 2, nonactic acid]",44.4 ± 2.77,289 ± 3.54,185.9 ± 1.27,83.6 ± 2.54,1605 ± 14.4,,,,,,,
"CC[C@@H](O)C[C@H]1CC[C@@H]([C@H](C)C(=O)O)O1 [Compound 3, homononactic acid]",39.9 ± 3.22,99.1 ± 2.66,146 ± 2.01,57 ± 1.88,1027 ± 8.01,,,,,,,
"CCOC(=O)[C@@H](C)[C@@H]1CC[C@H](C[C@H](O)CC)O1 [Compound 4, ethyl homononactate]",11.8 ± 1.83,39.6 ± 2.57,65.09 ± 0.62,12.3 ± 0.54,249 ± 4.22,,,,,,,
"CC[C@@H](O)C[C@H]1CC[C@@H]([C@H](C)C(=O)O[C@@H](CC)C[C@@H]2CC[C@H]([C@@H](C)C(=O)O)O2)O1 [Compound 5, homononactylhomononactate]",38.1 ± 2.35,16.7 ± 1.08,30.7 ± 0.93,14.2 ± 0.47,33.3 ± 3.31,,,,,,,
"CC(C)[C@@H]1NC(=O)[C@H](C)OC(=O)[C@@H](C(C)C)NC(=O)[C@@H](C(C)C)OC(=O)[C@H](C(C)C)NC(=O)[C@H](C)OC(=O)[C@@H](C(C)C)NC(=O)[C@@H](C(C)C)OC(=O)[C@H](C(C)C)NC(=O)[C@H](C)OC(=O)[C@@H](C(C)C)NC(=O)[C@@H](C(C)C)OC1=O [Compound 6, valinomycin]",,,,,,significant cytotoxic activities,,,,,,
"CC(C)CC1NC(=O)C2CCCN2C1=O (centres unmarked) [Compound 7, cyclo-(Pro-Leu)]",102 ± 2.66,78.8 ± 1.95,51.1 ± 4.73,21.7 ± 0.35,776 ± 11.4,,,,,,,
CCOC(=O)[C@@H](C)C1CCC(C[C@@H](C)O)O1 (some centres unmarked) [Compound 8],441.3 ± 1.65,847 ± 39.5,445.9 ± 4.1,,164 ± 3.09,,,,,,,
CC[C@@H](O)CC1CCC([C@H](C)C(=O)OC(C)C)O1 (some centres unmarked) [Compound 9],113 ± 3.68,171 ± 5.08,115 ± 3.66,69.4 ± 3.9,29 ± 3.68,broad toxicity,,,,,,
CCCCOC(=O)[C@@H](C)C1CCC(C[C@H](O)CC)O1 (some centres unmarked) [Compound 10],326.8 ± 1.4,416.5 ± 3.9,314.6 ± 0.57,285.1 ± 2.44,109 ± 3.6,,,,,,,
CCCCCCCCCCOC(=O)[C@@H](C)C1CCC(C[C@@H](C)O)O1 (some centres unmarked) [Compound 11],43.2 ± 2.84,34.1 ± 1.87,24.29 ± 0.03,38.2 ± 0.7,44.2 ± 0.64,,24.3 to 44.2,,,,,
CCCCCCCCCCCCCCOC(=O)[C@@H](C)C1CCC(C[C@H](O)CC)O1 (some centres unmarked) [Compound 12],209 ± 3.25,485.6 ± 3.18,127 ± 6.65,187 ± 4.57,150 ± 4.03,,,,,,,
CCCCCCCCCCCCCCCCCCOC(=O)[C@@H](C)C1CCC(C[C@H](O)CC)O1 (some centres unmarked) [Compound 13],322 ± 4.17,362.4 ± 0.96,217.6 ± 0.99,313 ± 3.29,299.3 ± 1.77,,,,,,,
CC[C@@H](O)CC1CCC([C@H](C)C(=O)OCc2ccccc2)O1 (some centres unmarked) [Compound 14],73.2 ± 1.05,111 ± 3.89,89.9 ± 1.09,41.4 ± 2.84,21.1 ± 3.66,broad toxicity,21.1 to 89.9,,,,,
CC[C@@H](O)CC1CCC([C@H](C)C(=O)Oc2ccc(C=O)cc2OC)O1 (some centres unmarked) [Compound 15],531 ± 5.46,,175 ± 6.11,175 ± 3.28,,,,,,,,
CC[C@@H](O)CC1CCC([C@H](C)C(=O)Oc2ccc(-c3ccccc3)cc2)O1 (some centres unmarked) [Compound 16],165.1 ± 1.23,156 ± 3.56,67.32 ± 0.25,105 ± 2.58,110 ± 1.36,,,,,,,
C[C@H](C(=O)N1CCCCC1)C1CCC(C[C@@H](C)O)O1 (some centres unmarked) [Compound 17],563 ± 7.35,390 ± 10,199.1 ± 1.9,339 ± 1.23,180 ± 7.88,,,,,,,
CC[C@@H](O)CC1CCC([C@H](C)C(=O)Nc2ccccc2N)O1 (some centres unmarked) [Compound 18],235.7 ± 1.31,302.4 ± 1.83,108 ± 5.22,402.9 ± 0.69,55.7 ± 7.65,broad toxicity,,,,,,
CC[C@@H](O)CC1CCC([C@H](C)C(=O)Nc2nc3ccccc3s2)O1 (some centres unmarked) [Compound 19],169 ± 4.2,270.3 ± 1.09,128.5 ± 0.48,,80.1 ± 3.82,,,,,,,
CCC[C@H](CC1CCC([C@H](C)C(=O)O)O1)O[Si](C)(C)C(C)(C)C (some centres unmarked) [Compound 20],356 ± 7.67,284.3 ± 1.24,215 ± 0.76,323 ± 5.94,37 ± 1.39,broad toxicity,,,,,,
"CC(=O)O[C@H]1C(=O)[C@@]2(C)[C@H]([C@H](OC(=O)c3ccccc3)[C@]3(O)C[C@H](OC(=O)[C@H](O)[C@@H](NC(=O)c4ccccc4)c4ccccc4)C(C)=C1C3(C)C)[C@]1(OC(C)=O)CO[C@@H]1C[C@@H]2O [Paclitaxel, reference compound]",,,,,,,,0.00569 ± 0.00132,0.0138 ± 0.00212,0.0458 ± 0.00179,0.00931 ± 0.00188,0.0182 ± 0.00234
